Reference: patent US20120122860A1, “SOLID FORMS OF SULFONAMIDES AND AMINO ACIDS” (Plexxikon, Inc., priority 2009, published 2012)

Assays:
Src = Src (Homo sapiens, UniProt P12931); assay: Kinase activity assay, Src
Kdr = Kdr (Homo sapiens, UniProt P35968); assay: Kinase activity assay, Kdr
Fms = Fms (Homo sapiens, UniProt P07333); assay: Kinase activity assay, Fms
B-Raf = B-Raf (Homo sapiens, UniProt P15056); assay: Kinase activity assay, B-Raf; assay type: biochemical; conditions: read-out: activity toward kinase B-Raf, IC50
Kit = Kit (Homo sapiens, UniProt P10721); assay: Kinase activity assay, Kit
Chain of Kit (P10721 26-976): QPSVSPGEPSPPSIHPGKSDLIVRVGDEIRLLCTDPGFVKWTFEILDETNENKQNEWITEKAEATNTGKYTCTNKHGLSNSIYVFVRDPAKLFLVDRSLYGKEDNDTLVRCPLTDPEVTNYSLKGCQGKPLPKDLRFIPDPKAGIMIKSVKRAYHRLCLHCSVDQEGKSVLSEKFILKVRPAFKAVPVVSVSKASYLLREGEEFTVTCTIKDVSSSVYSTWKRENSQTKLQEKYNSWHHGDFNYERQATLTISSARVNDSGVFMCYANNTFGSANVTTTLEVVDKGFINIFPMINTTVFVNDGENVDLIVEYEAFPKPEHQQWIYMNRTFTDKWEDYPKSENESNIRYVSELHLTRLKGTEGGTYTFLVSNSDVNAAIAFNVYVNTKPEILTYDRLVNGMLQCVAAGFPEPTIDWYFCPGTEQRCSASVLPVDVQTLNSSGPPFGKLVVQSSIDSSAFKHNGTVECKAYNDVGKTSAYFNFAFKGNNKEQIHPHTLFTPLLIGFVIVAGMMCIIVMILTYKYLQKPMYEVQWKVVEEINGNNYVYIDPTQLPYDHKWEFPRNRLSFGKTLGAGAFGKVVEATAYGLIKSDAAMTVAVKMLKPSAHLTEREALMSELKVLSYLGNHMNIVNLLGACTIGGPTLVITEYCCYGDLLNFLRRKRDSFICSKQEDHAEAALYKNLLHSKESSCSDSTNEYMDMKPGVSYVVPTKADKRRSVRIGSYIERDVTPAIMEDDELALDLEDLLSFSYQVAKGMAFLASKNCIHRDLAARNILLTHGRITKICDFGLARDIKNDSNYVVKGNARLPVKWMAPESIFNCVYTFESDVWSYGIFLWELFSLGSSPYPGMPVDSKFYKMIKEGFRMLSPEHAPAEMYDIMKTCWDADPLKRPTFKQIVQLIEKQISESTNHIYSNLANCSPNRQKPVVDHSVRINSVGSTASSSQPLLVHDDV

C-Raf = C-Raf (Homo sapiens, UniProt P04049); assay: Kinase activity assay, C-Raf
Chain of C-Raf (P04049 whole entry): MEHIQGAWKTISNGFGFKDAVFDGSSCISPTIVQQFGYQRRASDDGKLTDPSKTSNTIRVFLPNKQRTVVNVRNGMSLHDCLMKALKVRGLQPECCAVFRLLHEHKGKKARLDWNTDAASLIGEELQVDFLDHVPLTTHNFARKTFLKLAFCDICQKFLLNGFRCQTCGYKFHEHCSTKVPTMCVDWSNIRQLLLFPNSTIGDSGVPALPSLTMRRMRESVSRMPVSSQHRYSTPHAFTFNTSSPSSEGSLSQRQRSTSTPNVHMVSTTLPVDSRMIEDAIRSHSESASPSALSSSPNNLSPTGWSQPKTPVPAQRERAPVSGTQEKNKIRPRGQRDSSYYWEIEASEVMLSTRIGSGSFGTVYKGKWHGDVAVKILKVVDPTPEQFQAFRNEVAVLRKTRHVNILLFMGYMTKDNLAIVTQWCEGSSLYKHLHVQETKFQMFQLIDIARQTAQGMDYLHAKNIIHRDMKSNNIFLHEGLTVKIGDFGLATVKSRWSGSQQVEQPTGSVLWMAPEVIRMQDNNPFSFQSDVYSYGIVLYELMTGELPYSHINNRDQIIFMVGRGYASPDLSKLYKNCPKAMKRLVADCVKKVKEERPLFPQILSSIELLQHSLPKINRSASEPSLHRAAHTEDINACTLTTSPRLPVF

B-Raf V600E = B-Raf V600E (Homo sapiens, UniProt P15056, V600E); assay: Kinase activity assay, B-Raf V600E; assay type: biochemical; conditions: read-out: activity toward kinase B-Raf V600E, IC50
MAP4K4 = MAP4K4 (Homo sapiens, UniProt O95819); assay: Kinase activity assay, MAP4K4

Chain of Kdr (P35968 20-1356): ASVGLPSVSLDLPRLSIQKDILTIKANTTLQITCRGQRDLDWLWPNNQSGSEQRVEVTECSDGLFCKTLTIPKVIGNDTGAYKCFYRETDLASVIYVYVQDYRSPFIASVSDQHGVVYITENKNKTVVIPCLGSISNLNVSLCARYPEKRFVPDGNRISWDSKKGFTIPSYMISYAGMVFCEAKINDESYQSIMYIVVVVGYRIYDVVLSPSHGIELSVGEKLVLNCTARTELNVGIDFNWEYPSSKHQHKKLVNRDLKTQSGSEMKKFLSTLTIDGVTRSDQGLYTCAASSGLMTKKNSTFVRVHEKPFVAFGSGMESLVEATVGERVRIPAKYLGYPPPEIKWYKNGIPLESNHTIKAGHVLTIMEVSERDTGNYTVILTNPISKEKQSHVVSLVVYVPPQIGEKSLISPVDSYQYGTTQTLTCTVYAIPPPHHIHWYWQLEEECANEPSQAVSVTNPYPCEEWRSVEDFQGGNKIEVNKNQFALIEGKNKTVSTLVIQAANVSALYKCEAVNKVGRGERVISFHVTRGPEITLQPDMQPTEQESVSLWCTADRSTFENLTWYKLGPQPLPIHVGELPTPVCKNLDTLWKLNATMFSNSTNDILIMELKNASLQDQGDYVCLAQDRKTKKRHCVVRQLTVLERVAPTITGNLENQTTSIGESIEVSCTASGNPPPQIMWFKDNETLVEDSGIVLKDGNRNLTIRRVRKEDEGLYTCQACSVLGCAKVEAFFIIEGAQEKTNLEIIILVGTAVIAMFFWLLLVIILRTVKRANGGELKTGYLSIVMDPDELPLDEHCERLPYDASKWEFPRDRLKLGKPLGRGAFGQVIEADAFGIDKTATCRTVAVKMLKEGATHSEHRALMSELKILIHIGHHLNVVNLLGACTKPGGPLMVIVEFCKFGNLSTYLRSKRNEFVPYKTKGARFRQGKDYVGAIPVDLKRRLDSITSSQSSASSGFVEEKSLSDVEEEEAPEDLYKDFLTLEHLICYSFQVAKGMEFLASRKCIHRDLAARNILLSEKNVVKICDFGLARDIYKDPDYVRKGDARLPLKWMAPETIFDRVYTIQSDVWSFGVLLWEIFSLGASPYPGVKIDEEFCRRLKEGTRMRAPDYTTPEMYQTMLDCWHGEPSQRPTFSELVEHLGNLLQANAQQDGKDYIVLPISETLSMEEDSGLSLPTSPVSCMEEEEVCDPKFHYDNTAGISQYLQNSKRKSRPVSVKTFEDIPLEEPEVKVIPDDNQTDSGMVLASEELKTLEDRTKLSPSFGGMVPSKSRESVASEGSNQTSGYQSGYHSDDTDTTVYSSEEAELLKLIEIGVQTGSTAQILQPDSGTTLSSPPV
Chain of Src (P12931 whole entry): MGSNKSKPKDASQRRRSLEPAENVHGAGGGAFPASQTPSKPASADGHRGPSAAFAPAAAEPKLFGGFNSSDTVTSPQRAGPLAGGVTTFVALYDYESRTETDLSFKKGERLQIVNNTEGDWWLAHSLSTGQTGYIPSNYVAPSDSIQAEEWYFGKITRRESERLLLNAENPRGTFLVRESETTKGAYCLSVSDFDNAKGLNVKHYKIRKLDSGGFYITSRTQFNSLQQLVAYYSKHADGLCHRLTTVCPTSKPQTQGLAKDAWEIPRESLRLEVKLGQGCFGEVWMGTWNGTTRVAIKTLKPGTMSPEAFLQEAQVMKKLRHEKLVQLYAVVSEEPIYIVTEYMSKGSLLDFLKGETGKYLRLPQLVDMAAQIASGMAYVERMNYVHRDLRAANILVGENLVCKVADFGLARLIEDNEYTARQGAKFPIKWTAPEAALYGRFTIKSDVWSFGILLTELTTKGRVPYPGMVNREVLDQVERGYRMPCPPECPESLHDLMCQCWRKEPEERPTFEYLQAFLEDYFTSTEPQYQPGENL
Chain of Fms (P07333 20-972): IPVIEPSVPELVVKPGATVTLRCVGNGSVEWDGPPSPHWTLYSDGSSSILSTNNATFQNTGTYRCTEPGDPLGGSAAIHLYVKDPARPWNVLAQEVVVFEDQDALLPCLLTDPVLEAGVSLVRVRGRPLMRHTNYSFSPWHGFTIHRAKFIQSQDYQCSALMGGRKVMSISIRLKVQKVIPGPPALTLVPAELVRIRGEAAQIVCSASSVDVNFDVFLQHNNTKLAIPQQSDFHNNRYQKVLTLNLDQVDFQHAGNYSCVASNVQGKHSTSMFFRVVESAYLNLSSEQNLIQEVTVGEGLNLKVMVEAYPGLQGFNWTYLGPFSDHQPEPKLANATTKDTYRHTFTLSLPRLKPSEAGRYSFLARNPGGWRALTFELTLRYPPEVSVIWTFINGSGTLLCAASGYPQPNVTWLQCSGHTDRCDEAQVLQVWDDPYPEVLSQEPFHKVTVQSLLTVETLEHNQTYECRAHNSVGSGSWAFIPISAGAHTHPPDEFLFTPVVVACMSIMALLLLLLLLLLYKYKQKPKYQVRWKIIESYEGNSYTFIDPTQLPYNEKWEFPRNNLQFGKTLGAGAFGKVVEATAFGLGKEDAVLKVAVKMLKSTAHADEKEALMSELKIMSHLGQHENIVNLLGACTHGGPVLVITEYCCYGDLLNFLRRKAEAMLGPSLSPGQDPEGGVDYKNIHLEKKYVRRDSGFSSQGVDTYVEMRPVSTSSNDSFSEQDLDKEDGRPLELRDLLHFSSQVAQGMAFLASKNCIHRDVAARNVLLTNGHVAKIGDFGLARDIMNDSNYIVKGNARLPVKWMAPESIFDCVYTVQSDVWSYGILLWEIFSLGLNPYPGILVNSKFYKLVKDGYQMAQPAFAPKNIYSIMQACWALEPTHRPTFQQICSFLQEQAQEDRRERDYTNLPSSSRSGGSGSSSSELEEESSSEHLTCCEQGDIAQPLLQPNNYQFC

Row | IC50 (Src) | IC50 (Kdr) | IC50 (Fms) | IC50 (B-Raf) | IC50 (Kit) | IC50 (C-Raf) | IC50 (B-Raf V600E) | IC50 (MAP4K4) | Compound
1 | ≤ 10 µM | ≤ 10 µM | ≤ 10 µM | ≤ 10 µM | ≤ 10 µM |  | ≤ 10 µM |  | CCCS(=O)(=O)Nc1ccc(F)c(C(=O)c2c[nH]c3ncc(-c4ccc(C)nc4F)cc23)c1F [P-2172, Propane-1-sulfonic acid {2,4-difluoro-3-[5-(2-fluoro-6-methyl-pyridin-3-yl)-1H-pyrrolo[2,3-b]pyridine-3-carbonyl]-phenyl}-amide]
2 | ≤ 10 µM | ≤ 10 µM | ≤ 10 µM | ≤ 10 µM | ≤ 10 µM |  | ≤ 10 µM |  | CCCS(=O)(=O)Nc1ccc(F)c(C(=O)c2c[nH]c3ncc(-c4ccnn4C)cc23)c1F [P-2175, Propane-1-sulfonic acid {2,4-difluoro-3-[5-(2-methyl-2H-pyrazol-3-yl)-1H-pyrrolo[2,3-b]pyridine-3-carbonyl]-phenyl}-amide]
3 | ≤ 10 µM | ≤ 10 µM | ≤ 10 µM | ≤ 10 µM | ≤ 10 µM | ≤ 10 µM | ≤ 10 µM |  | CCCS(=O)(=O)Nc1ccc(F)c(C(=O)c2c[nH]c3ncc(-c4cccc(O)c4)cc23)c1F [P-2179, Propane-1-sulfonic acid {2,4-difluoro-3-[5-(3-hydroxy-phenyl)-1H-pyrrolo[2,3-b]pyridine-3-carbonyl]-phenyl}-amide]
4 | ≤ 10 µM | ≤ 10 µM | ≤ 10 µM | ≤ 10 µM | ≤ 10 µM |  | ≤ 10 µM |  | CCCS(=O)(=O)Nc1ccc(F)c(C(=O)c2c[nH]c3ncc(-c4ccc(C(=O)NC)nc4)cc23)c1F [P-2180, 5-{3-[2,6-Difluoro-3-(propane-1-sulfonylamino)-benzoyl]-1H-pyrrolo[2,3-b]pyridin-5-yl}-pyridine-2-carboxylic acid methylamide]
5 | ≤ 10 µM | ≤ 10 µM | ≤ 10 µM | ≤ 10 µM | ≤ 10 µM |  | ≤ 10 µM |  | CCCS(=O)(=O)Nc1ccc(F)c(C(=O)c2c[nH]c3ncc(-c4ccc(C(=O)NC5CC5)nc4)cc23)c1F [P-2181, 5-{3-[2,6-Difluoro-3-(propane-1-sulfonylamino)-benzoyl]-1H-pyrrolo[2,3-b]pyridin-5-yl}-pyridine-2-carboxylic acid cyclopropylamide]
6 | ≤ 10 µM | ≤ 10 µM | ≤ 10 µM | ≤ 10 µM | ≤ 10 µM | ≤ 10 µM | ≤ 10 µM |  | CCCS(=O)(=O)Nc1ccc(F)c(C(=O)c2c[nH]c3ncc(-c4ccc(S(=O)(=O)N(C)C)cc4)cc23)c1F [P-2185, 4-{3-[2,6-Difluoro-3-(propane-1-sulfonylamino)-benzoyl]-1H-pyrrolo[2,3-b]pyridin-5-yl}-N,N-dimethyl-benzenesulfonamide]
7 | ≤ 10 µM | ≤ 10 µM | ≤ 10 µM | ≤ 10 µM | ≤ 10 µM |  | ≤ 10 µM |  | CCCS(=O)(=O)Nc1ccc(F)c(C(=O)c2c[nH]c3ncc(-c4ccc(SC)nc4)cc23)c1F [P-2187]
8 | ≤ 10 µM | ≤ 10 µM | ≤ 10 µM | ≤ 10 µM | ≤ 10 µM |  | ≤ 10 µM |  | CCCS(=O)(=O)Nc1ccc(F)c(C(=O)c2c[nH]c3ncc(-c4ccnc(F)c4)cc23)c1F [P-2192, Propane-1-sulfonic acid {2,4-difluoro-3-[5-(2-fluoro-pyridin-4-yl)-1H-pyrrolo[2,3-b]pyridine-3-carbonyl]-phenyl}-amide]
9 | ≤ 10 µM | ≤ 10 µM | ≤ 10 µM | ≤ 10 µM | ≤ 10 µM |  | ≤ 10 µM |  | CCCS(=O)(=O)Nc1ccc(F)c(C(=O)c2c[nH]c3ncc(O)cc23)c1F [P-2204, Propane-1-sulfonic acid [2,4-difluoro-3-(5-hydroxy-1H-pyrrolo[2,3-b]pyridine-3-carbonyl)-phenyl]-amide]
10 | ≤ 10 µM | ≤ 10 µM | ≤ 10 µM | ≤ 10 µM | ≤ 10 µM |  | ≤ 10 µM |  | CCS(=O)(=O)Nc1ccc(F)c(C(=O)c2c[nH]c3ncc(Br)cc23)c1F [P-2268, Ethanesulfonic acid [3-(5-bromo-1H-pyrrolo[2,3-b]pyridine-3-carbonyl)-2,4-difluoro-phenyl]-amide]
11 | ≤ 10 µM | ≤ 10 µM | ≤ 10 µM | ≤ 10 µM | ≤ 10 µM |  | ≤ 10 µM |  | CC(C)CS(=O)(=O)Nc1ccc(F)c(C(=O)c2c[nH]c3ncc(-c4ccc(F)cc4)cc23)c1F [P-2298, 2-Methyl-propane-1-sulfonic acid {2,4-difluoro-3-[5-(4-fluoro-phenyl)-1H-pyrrolo[2,3-b]pyridine-3-carbonyl]-phenyl}-amide]
12 | ≤ 10 µM | ≤ 10 µM | ≤ 10 µM | ≤ 10 µM | ≤ 10 µM |  | ≤ 10 µM |  | O=C(c1c(F)ccc(NS(=O)(=O)CCC(F)(F)F)c1F)c1c[nH]c2ncc(-c3ccc(F)cc3)cc12 [P-2326, 3,3,3-Trifluoro-propane-1-sulfonic acid {2,4-difluoro-3-[5-(4-fluoro-phenyl)-1H-pyrrolo[2,3-b]pyridine-3-carbonyl]-phenyl}-amide]
13 | ≤ 10 µM | ≤ 10 µM | ≤ 10 µM | ≤ 10 µM | ≤ 10 µM |  | ≤ 10 µM |  | O=C(c1c(F)ccc(NS(=O)(=O)CC(F)(F)F)c1F)c1c[nH]c2ncc(Br)cc12 [P-2334, 2,2,2-Trifluoro-ethanesulfonic acid [3-(5-bromo-1H-pyrrolo[2,3-b]pyridine-3-carbonyl)-2,4-difluoro-phenyl]-amide]

More lines, now with the values behind:

Row | Compound | IC50 (Src) | IC50 (Kdr) | IC50 (Fms) | IC50 (B-Raf) | IC50 (Kit) | IC50 (C-Raf) | IC50 (B-Raf V600E) | IC50 (MAP4K4)
14 | CN1CCOc2cc(S(=O)(=O)Nc3ccc(F)c(C(=O)c4c[nH]c5ncc(Cl)cc45)c3F)ccc21 [P-2001, 4-Methyl-3,4-dihydro-2H-benzo[1,4]oxazine-7-sulfonic acid [3-(5-chloro-1H-pyrrolo[2,3-b]pyridine-3-carbonyl)-2,4-difluoro-phenyl]-amide] | ≤ 10 µM | ≤ 10 µM | ≤ 10 µM | ≤ 10 µM | ≤ 10 µM | ≤ 10 µM |  | 
15 | Cc1cc(C)cc(S(=O)(=O)Nc2ccc(F)c(C(=O)c3c[nH]c4ncc(Cl)cc34)c2F)c1 [P-2004, N-[3-(5-Chloro-1H-pyrrolo[2,3-b]pyridine-3-carbonyl)-2,4-difluoro-phenyl]-3,5-dimethyl-benzenesulfonamide] | ≤ 10 µM | ≤ 10 µM | ≤ 10 µM | ≤ 10 µM | ≤ 10 µM | ≤ 10 µM | ≤ 10 µM | 
16 | COc1ccc(S(=O)(=O)Nc2ccc(F)c(C(=O)c3c[nH]c4ncc(Cl)cc34)c2F)cc1F [P-2005, N-[3-(5-Chloro-1H-pyrrolo[2,3-b]pyridine-3-carbonyl)-2,4-difluoro-phenyl]-3-fluoro-4-methoxy-benzenesulfonamide] | ≤ 10 µM | ≤ 10 µM | ≤ 10 µM | ≤ 10 µM | ≤ 10 µM | ≤ 10 µM | ≤ 10 µM | 
17 | Cc1cc(F)ccc1S(=O)(=O)Nc1ccc(F)c(C(=O)c2c[nH]c3ncc(Cl)cc23)c1F [P-2006, N-[3-(5-Chloro-1H-pyrrolo[2,3-b]pyridine-3-carbonyl)-2,4-difluoro-phenyl]-4-fluoro-2-methyl-benzenesulfonamide] | ≤ 10 µM | ≤ 10 µM | ≤ 10 µM | ≤ 10 µM | ≤ 10 µM | ≤ 10 µM | ≤ 10 µM | 
18 | O=C(c1c(F)ccc(NS(=O)(=O)c2ccc3c(c2)CCO3)c1F)c1c[nH]c2ncc(Cl)cc12 [P-2007, 2,3-Dihydro-benzofuran-5-sulfonic acid [3-(5-chloro-1H-pyrrolo[2,3-b]pyridine-3-carbonyl)-2,4-difluoro-phenyl]-amide] | ≤ 10 µM |  | ≤ 10 µM | ≤ 10 µM | ≤ 10 µM | ≤ 10 µM | ≤ 10 µM | 
19 | O=C(c1cccc(NS(=O)(=O)c2cccnc2)c1)c1c[nH]c2ncc(Cl)cc12 [P-2146, Pyridine-3-sulfonic acid [3-(5-chloro-1H-pyrrolo[2,3-b]pyridine-3-carbonyl)-phenyl]-amide] |  | ≤ 10 µM |  |  |  |  |  | ≤ 10 µM
20 | CCCS(=O)(=O)Nc1ccc(F)c(C(=O)c2c[nH]c3ncc(-c4ccc(F)nc4)cc23)c1F [P-2155, Propane-1-sulfonic acid {2,4-difluoro-3-[5-(6-fluoro-pyridin-3-yl)-1H-pyrrolo[2,3-b]pyridine-3-carbonyl]-phenyl}-amide] | ≤ 10 µM | ≤ 10 µM | ≤ 10 µM | ≤ 10 µM | ≤ 10 µM | ≤ 10 µM | ≤ 10 µM | 
21 | CCCS(=O)(=O)Nc1ccc(F)c(C(=O)c2c[nH]c3ncc(-c4ccc(S(=O)(=O)N5CCOCC5)cc4)cc23)c1F [P-2166, Propane-1-sulfonic acid (2,4-difluoro-3-{5-[4-(morpholine-4-sulfonyl)-phenyl]-1H-pyrrolo[2,3-b]pyridine-3-carbonyl}-phenyl)-amide] | ≤ 10 µM | ≤ 10 µM | ≤ 10 µM | ≤ 10 µM | ≤ 10 µM | ≤ 10 µM | ≤ 10 µM | 
22 | CCCS(=O)(=O)Nc1ccc(F)c(C(=O)c2c[nH]c3ncc(-c4ccc(S(=O)(=O)NC)cc4)cc23)c1F [P-2167, 4-{3-[2,6-Difluoro-3-(propane-1-sulfonylamino)-benzoyl]-1H-pyrrolo[2,3-b]pyridin-5-yl}-N-methyl-benzenesulfonamide] | ≤ 10 µM | ≤ 10 µM | ≤ 10 µM | ≤ 10 µM | ≤ 10 µM | ≤ 10 µM | ≤ 10 µM | 
